Measurements: patent US12583858B2 (Genentech, Inc., priority 2015, dated 2026)

molecular target: T1, TDO2 (Homo sapiens, UniProt P48775); test: TDO2 cell assay (NFK GreenScreen, SW48 cells); assay type: cell-based; details: SW48 cells (high TDO expressing), 200 uM tryptophan, 24 hours; Table 3; read-out: TDO2 Cell Fluor EC50
T1 construct: decreased levels of NFK in SW48 cells (high TDO expressing cells)
T1 sequence (P48775 whole entry): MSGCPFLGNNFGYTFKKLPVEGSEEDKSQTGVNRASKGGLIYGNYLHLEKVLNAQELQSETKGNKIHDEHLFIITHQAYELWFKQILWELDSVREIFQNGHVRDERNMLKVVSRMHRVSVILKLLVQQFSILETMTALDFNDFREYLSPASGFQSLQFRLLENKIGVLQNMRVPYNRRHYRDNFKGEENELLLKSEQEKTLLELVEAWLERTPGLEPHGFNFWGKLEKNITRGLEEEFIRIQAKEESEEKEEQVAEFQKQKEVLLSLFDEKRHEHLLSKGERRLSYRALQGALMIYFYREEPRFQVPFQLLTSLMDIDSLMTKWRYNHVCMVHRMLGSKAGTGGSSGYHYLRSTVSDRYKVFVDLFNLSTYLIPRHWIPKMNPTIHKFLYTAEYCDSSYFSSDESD

| Structure (SMILES) | EC50 |
| --- | --- |
| OC1CCCCC1C1c2ccccc2-c2cncn21 (single isomer, unassigned) [Example 03f] | 0.3 µM |
| OC1CCCOCC1C1c2ccccc2-c2cncn21 (single isomer, unassigned) [Example 86a] | 14 µM |
| OC1C(C2c3ccc(F)cc3-c3cncn32)CC12CCOCC2 (single isomer, unassigned) [Example 109a] | 0.62 µM |
| OC1c2cnncc2CCC1C1c2ccccc2-c2cncn21 (single isomer, unassigned) [Example 112g] | 0.27 µM |
| O[C@@H]1CCCC[C@@H]1[C@@H]1c2ccccc2-c2cncn21 [Example 03h, (1R,2R)-2-((R)-5H-imidazo[5,1-a]isoindol-5-yl)cyclohexan-1-ol] | 13 µM |
| OC(C1CC1)C1c2ccccc2-c2cncn21 (single isomer, unassigned) [Example 52b] | 23.7 µM |
| CC(C)(C)OC(=O)N1CCC(C2c3ccccc3-c3cncn32)C(O)C1 (single isomer, unassigned) [Example 10c, tert-butyl 3-hydroxy-4-(5H-imidazo[5,1-a]isoindol-5-yl)piperidine-1-carboxylate] | 19 µM |
| OC1CC2(COC2)C1C1c2ccccc2-c2cncn21 (single isomer, unassigned) [Example 87h] | 11 µM |
| CS(=O)(=O)N1CCC(C2c3ccccc3-c3cncn32)C(O)C1 [Example 64c, (3R,4R)-4-((R)-5H-imidazo[5,1-a]isoindol-5-yl)-1-(methylsulfonyl)piperidin-3-ol] | > 25 µM |
| OC1C(C2c3ccccc3-c3cncn32)CC12CCOCC2 (single isomer, unassigned) [Example 57h] | > 25 µM |
| OC1C(C2c3ccccc3-c3cncn32)CC12CCOCC2 (single isomer, unassigned) [Example 57d] | > 25 µM |
| OC1CCCC1C1c2ccc(F)cc2-c2cncn21 (single isomer, unassigned) [Example 20a] | > 25 µM |
| CCS(=O)(=O)N1CCC(O)C(C2c3ccccc3-c3cncn32)C1 (single isomer, unassigned) [Example 15a] | > 25 µM |
| OC1COCCC1C1c2cccc(F)c2-c2cncn21 (single isomer, unassigned) [Example 99a] | > 25 µM |
| NS(=O)(=O)c1ccc2c(c1)CCC(C1c3ccccc3-c3cncn31)C2O (single isomer, unassigned) [Example 100h] | 4.8 µM |
| OC1C(C2c3ccccc3-c3cncn32)CCC12CCOCC2 (single isomer, unassigned) [Example 68g] | > 25 µM |
| N#Cc1cnc2c(c1)CCC(C1c3ccccc3-c3cncn31)C2O (single isomer, unassigned) [Example 107e] | 23 µM |
| OC1c2cnccc2CCC1C1c2ccccc2-c2cncn21 (single isomer, unassigned) [Example 04b] | > 25 µM |
| OC1c2cnncc2CCC1C1c2ccccc2-c2cncn21 (single isomer, unassigned) [Example 112d] | 5.6 µM |

| Structure (SMILES) | EC50 |
| --- | --- |
| O[C@@H]1c2ccnn2CC[C@@H]1[C@@H]1c2ccccc2-c2cncn21 [Example 56c, (4S,5R)-5-((R)-5H-imidazo[5,1-a]isoindol-5-yl)-4,5,6,7-tetrahydropyrazolo[1,5-a]pyridin-4-ol] | > 25 µM |
| OC1COCCC1C1c2cccc(F)c2-c2cncn21 (single isomer, unassigned) [Example 99c] | > 25 µM |
| CC1(C)COCC(C2c3ccccc3-c3cncn32)C1O (single isomer, unassigned) [Example 66g] | 0.071 µM |
| N#CCN1CCC(O)C(C2c3ccccc3-c3cncn32)C1 (single isomer, unassigned) [Example 14c] | 20 µM |
| CC(C)(C)OC(=O)N1CCC(O)C(C2c3ccccc3-c3cncn32)C1 (single isomer, unassigned) [Example 11d, tert-butyl 4-hydroxy-3-(5H-imidazo[5,1-a]isoindol-5-yl)piperidine-1-carboxylate] | 22 µM |
| CCS(=O)(=O)N1CC(O)C(C2c3ccccc3-c3cncn32)C1 (single isomer, unassigned) [Example 40d] | > 25 µM |
| CCS(=O)(=O)N1CC[C@H]([C@H]2c3ccccc3-c3cncn32)[C@@H](O)C1 [Example 16c, (3R,4R)-1-(ethylsulfonyl)-4-((S)-5H-imidazo[5,1-a]isoindol-5-yl)piperidin-3-ol] | 5.7 µM |
| OC1c2nccn2CCC1C1c2ccccc2-c2cncn21 (single isomer, unassigned) [Example 88f] | 5.8 µM |
| OC1COCC1C1c2ccc(F)cc2-c2cncn21 (single isomer, unassigned) [Example 30d] | > 25 µM |
| CCS(=O)(=O)N1CCC(O)C(C2c3ccccc3-c3cncn32)C1 (single isomer, unassigned) [Example 15c] | 7.5 µM |
| OC1c2ccccc2CCC1C1c2ccccc2-c2cncn21 (single isomer, unassigned) [Example 102c] | 0.32 µM |
| OC1CCC(F)(F)CC1C1c2ccccc2-c2cncn21 (single isomer, unassigned) [Example 18h, 4,4-difluoro-2-(5H-imidazo[5,1-a]isoindol-5-yl)cyclohexan-1-ol] | 13 µM |
| OC1COCC1C1c2ccc(F)cc2-c2cncn21 (single isomer, unassigned) [Example 30c] | 2.1 µM |
| OC1CCOCC1C1c2c(Cl)cccc2-c2cncn21 (single isomer, unassigned) [Example 69c] | 11 µM |
| OC1CC2(CC2)C1C1c2ccccc2-c2cncn21 (single isomer, unassigned) [Example 72a] | 6.6 µM |
| N#CCN1CC[C@@H]([C@H]2c3ccccc3-c3cncn32)[C@H](O)C1 (single isomer, unassigned) [Example 27b] | 18 µM |
| O[C@H]1c2cccnc2CC[C@H]1[C@H]1c2ccccc2-c2cncn21 [Example 31h, (5R,6S)-6-((S)-5H-imidazo[5,1-a]isoindol-5-yl)-5,6,7,8-tetrahydroquinolin-5-ol] | 0.12 µM |
| CC(=O)N1CCC(C2c3ccccc3-c3cncn32)C(O)C1 (single isomer, unassigned) [Example 09b, 1-(3-hydroxy-4-(5H-imidazo[5,1-a]isoindol-5-yl)piperidin-1-yl)ethan-1-one] | 3 µM |

Now from value to compound:

| EC50 | Structure (SMILES) |
| --- | --- |
| 17 µM | OC1(C2c3ccccc3-c3cncn32)CCOC1 (single isomer, unassigned) [Example 129b] |
| > 25 µM | NC(=O)C1CCC(O)(C2c3ccccc3-c3cncn32)CC1 (single isomer, unassigned) [Example 140c] |
| 0.64 µM | OC1c2cccn2CCC1C1c2ccccc2-c2cncn21 (single isomer, unassigned) [Example 136e] |
| > 25 µM | NC(=O)c1nc2c(s1)CCC(C1c3ccccc3-c3cncn31)C2O (single isomer, unassigned) [Example 149f] |
| 11 µM | OC1CC(CF)(CF)C1C1c2ccccc2-c2cncn21 (single isomer, unassigned) [Example 150f] |
| 3.1 µM | Cn1cc2c(n1)CCC(C1c3ccccc3-c3cncn31)C2O (single isomer, unassigned) [Example 130e] |
| 7.9 µM | OC1CC(C2c3ccccc3-c3cncn32)C1O (centres unmarked) [Example 158a, 3-(5H-imidazo[5,1-a]isoindol-5-yl)cyclobutane-1,2-diol] |
| > 25 µM | CCS(=O)(=O)N1CCC2(CC1)C[C@@H]([C@@H]1c3ccccc3-c3cncn31)[C@@H]2O [Example 114b, (1S,2S)-7-(ethylsulfonyl)-2-((R)-5H-imidazo[5,1-a]isoindol-5-yl)-7-azaspiro[3.5]nonan-1-ol] |
| 12 µM | NS(=O)(=O)N1CCC2(CC1)CC(C1c3ccccc3-c3cncn31)C2O (single isomer, unassigned) [Example 181e] |
| > 25 µM | O[C@@H]1c2nncn2CC[C@H]1[C@H]1c2ccccc2-c2cncn21 (single isomer, unassigned) [Example 146-1c] |
| > 25 µM | NS(=O)(=O)N1CCC2(CC1)CC(C1c3ccccc3-c3cncn31)C2O (single isomer, unassigned) [Example 181c] |
| > 25 µM | Nc1cc2n(n1)CCC(C1c3ccccc3-c3cncn31)C2O (single isomer, unassigned) [Example 161e] |
| > 25 µM | OC1c2cnncc2CCC1C1c2ccccc2-c2cncn21 (single isomer, unassigned) [Example 112h] |
| 15 µM | OC1c2nonc2CCC1C1c2ccccc2-c2cncn21 (single isomer, unassigned) [Example 163c] |
| > 25 µM | Nc1cc2n(n1)CCC(C1c3ccccc3-c3cncn31)C2O [Example 161f, (4R,5S)-2-amino-5-((R)-5H-imidazo[5,1-a]isoindol-5-yl)-4,5,6,7-tetrahydropyrazolo[1,5-a]pyridin-4-ol] |
| 0.22 µM | CCS(=O)(=O)N1CCC2(CC1)CC(C1c3ccccc3-c3cncn31)C2O (single isomer, unassigned) [Example 114d] |
| > 25 µM | N#Cc1cnn2c1C(O)C(C1c3ccccc3-c3cncn31)CC2 (single isomer, unassigned) [Example 156a] |
| 8.4 µM | CS(=O)(=O)N1CCC(C2c3ccc(F)cc3-c3cncn32)C(O)C1 (single isomer, unassigned) [Example 119b] |
| 4.8 µM | Nc1ccc2c(n1)CCC(C1c3ccccc3-c3cncn31)C2O (single isomer, unassigned) [Example 121h] |
| > 25 µM | NC(=O)C1CCC(O)(C2c3ccccc3-c3cncn32)CC1 (single isomer, unassigned) [Example 140a] |
| 4.5 µM | OC1(C2c3ccccc3-c3cncn32)CCOC1 (single isomer, unassigned) [Example 129c] |
| 3.3 µM | N#Cc1ccc2c(c1)C(O)C(C1c3ccccc3-c3cncn31)CC2 (single isomer, unassigned) [Example 113g] |
| 0.91 µM | CCS(=O)(=O)N1CCC2(CC1)CC(C1c3ccccc3-c3cncn31)C2O (single isomer, unassigned) [Example 114f] |
| > 25 µM | Cc1nc2c(o1)CCC(C1c3ccccc3-c3cncn31)C2O (single isomer, unassigned) [Example 178b] |
| > 25 µM | O[C@@H](C1CCOCC1)[C@@H]1c2ccccc2-c2cncn21 (single isomer, unassigned) [Example 138c] |
